Legend:
[1] = target: T1, Ba/F3-Flt3-transfected cells (Homo sapiens, UniProt P36888, cells depend on it, form not given); experiment: Ba/F3-Flt3 (minus IL3) cellular proliferation assay, Alamar Blue; format: cell-based
T1 sequence (P36888 1-993): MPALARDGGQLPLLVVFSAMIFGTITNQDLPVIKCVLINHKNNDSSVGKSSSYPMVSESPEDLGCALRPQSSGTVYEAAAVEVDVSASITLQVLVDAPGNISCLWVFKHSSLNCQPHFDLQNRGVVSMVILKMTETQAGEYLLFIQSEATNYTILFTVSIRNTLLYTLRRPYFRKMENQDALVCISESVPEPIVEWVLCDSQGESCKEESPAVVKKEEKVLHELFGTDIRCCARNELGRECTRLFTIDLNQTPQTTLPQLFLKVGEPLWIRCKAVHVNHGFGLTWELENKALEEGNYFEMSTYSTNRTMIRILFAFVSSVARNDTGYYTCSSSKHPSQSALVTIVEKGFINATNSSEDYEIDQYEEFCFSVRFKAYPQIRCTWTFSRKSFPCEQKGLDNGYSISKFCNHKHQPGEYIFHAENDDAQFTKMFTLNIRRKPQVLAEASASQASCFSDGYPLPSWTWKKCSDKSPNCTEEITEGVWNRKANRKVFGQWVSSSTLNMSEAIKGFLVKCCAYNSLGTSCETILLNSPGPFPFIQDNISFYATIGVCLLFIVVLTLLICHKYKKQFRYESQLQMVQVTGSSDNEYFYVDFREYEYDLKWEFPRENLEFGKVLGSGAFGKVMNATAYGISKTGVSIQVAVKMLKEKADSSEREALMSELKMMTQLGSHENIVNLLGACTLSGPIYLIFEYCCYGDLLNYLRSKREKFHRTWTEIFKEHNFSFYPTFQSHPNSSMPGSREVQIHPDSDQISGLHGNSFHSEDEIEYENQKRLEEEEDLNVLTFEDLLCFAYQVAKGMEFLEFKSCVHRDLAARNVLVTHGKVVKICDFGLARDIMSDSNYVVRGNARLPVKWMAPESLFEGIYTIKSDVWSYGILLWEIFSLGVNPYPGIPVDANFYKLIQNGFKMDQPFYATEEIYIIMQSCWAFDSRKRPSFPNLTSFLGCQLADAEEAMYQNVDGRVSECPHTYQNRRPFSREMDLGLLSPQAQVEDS

[2] = tested on: Ba/F3-FGFR1-transfected cells in the presence of 10 ng/ml murine IL3; experiment: Ba/F3-FGFR1 (plus IL3) cellular proliferation counterscreen, Alamar Blue; format: cell-based; settings: plus IL3, 384 well; for IC50: Mus musculus, read-out: BAF3-FGFR 1 (PLUS IL3) 384 well pIC50 (converted)
Description: Ba/F3-FGFR1 (Minus IL3 or Plus IL3) (Cellular Proliferation Assay)
(§1) In a 384 well plate, 100 nl of compound dilution in DMSO was sprayed before adding 50 μl cell culture medium (phenol red free RPMI-1640, 10% FBS, 2 mM L-Glutamine and 50 μg/ml Gentamycin) containing 20000 cells per well of Ba/F3-FGFR1-transfected cells. Cells were put in an incubator at 37° C. and 5% CO2. After 24 hours, 10 μl of Alamar Blue solution (0.5 mM K3Fe(CN)6, 0.5 mM KaFe(CN)6, 0.15 mM Resazurin and 100 mM Phosphate Buffer) was added to the wells, incubated for 4 hours at 37° C. and 5% CO2 before RFU's (Relative Fluorescence Units) (ex. 540 nm., em. 590 nm.) were measured in a flurorescence plate reader.
As a counterscreen the same experiment was performed in the presence of 10 ng/ml murine IL3.
as §1, with “a 96” for “a 384”, “plate, 180” for “plate, 100 nl of compound dilution in DMSO was sprayed before adding 50”, “containing 10000” for “containing 20000”, “Ba/F3-FGFR1-transfected cells were pipette and 20 μl of compound dilution in DMSO was added.” for “Ba/F3-FGFR1-transfected cells.”, “hours, 40” for “hours, 10”

[3] = target: Ba/F3-FGFR3-transfected cells (Homo sapiens, UniProt P22607); experiment: Ba/F3-FGFR3 (minus IL3) cellular proliferation assay, Alamar Blue; format: cell-based; settings: for BAF3-FGFR 3 (MIN IL3) 384 well pIC50: minus IL3, 384 well; for BAF3-FGFR 3 (MIN IL3) 96 well pIC50: minus IL3, 96 well
Chain of Ba/F3-FGFR3-transfected cells (P22607 whole entry, change not shown): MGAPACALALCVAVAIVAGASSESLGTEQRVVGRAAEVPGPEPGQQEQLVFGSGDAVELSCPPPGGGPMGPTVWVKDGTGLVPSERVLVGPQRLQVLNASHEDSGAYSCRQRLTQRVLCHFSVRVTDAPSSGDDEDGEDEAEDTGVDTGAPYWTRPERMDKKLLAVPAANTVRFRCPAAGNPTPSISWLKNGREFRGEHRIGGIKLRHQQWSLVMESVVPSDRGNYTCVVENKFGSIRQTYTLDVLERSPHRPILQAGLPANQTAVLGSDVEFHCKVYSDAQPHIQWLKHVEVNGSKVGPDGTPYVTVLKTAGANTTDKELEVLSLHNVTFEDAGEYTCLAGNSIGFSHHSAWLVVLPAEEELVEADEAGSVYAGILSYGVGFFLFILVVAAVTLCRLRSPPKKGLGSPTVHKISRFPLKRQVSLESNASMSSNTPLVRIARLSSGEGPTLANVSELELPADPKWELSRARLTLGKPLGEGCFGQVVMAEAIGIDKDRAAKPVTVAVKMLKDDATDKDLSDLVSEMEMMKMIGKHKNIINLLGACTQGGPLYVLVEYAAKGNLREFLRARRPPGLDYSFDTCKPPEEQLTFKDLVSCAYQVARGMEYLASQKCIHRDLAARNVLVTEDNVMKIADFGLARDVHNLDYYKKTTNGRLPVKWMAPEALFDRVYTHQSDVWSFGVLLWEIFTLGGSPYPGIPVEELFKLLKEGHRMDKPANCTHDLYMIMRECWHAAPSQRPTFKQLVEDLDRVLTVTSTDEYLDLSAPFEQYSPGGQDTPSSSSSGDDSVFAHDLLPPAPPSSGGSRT
Description: Ba/F3-FGFR3 (Minus IL3 or Plus IL3) (Cellular Proliferation Assay)
Cells were put in an incubator at 37° C. and 5% CO2. After 24 hours, 10 μl of Alamar Blue solution (0.5 mM K3Fe(CN)6, 0.5 mM KaFe(CN)6, 0.15 mM Resazurin and 100 mM Phosphate Buffer) was added to the wells, incubated for 4 hours at 37° C. and 5% CO2 before RFU's (Relative Fluorescence Units) (ex. 540 nm., em. 590 nm.) were measured in a flurorescence plate reader. […]
as §1, with “a 96” for “a 384”, “plate, 180” for “plate, 100 nl of compound dilution in DMSO was sprayed before adding 50”, “containing 10000” for “containing 20000”, “of Ba/F3-FGFR3-transfected cells were pipette and 20 μl of compound dilution in DMSO was added.” for “of Ba/F3-FGFR1-transfected cells.”, “hours, 40” for “hours, 10”

SMILES	melting point	BAF3-FLT3 (MIN IL3) 384 well pIC50 ([1]; minus IL3)	IC50 [2]	BAF3-FGFR 3 (MIN IL3) 384 well pIC50 [3]	BAF3-FGFR 1 (PLUS IL3) 384 well pIC50 [2]	BAF3-FLT3 (MIN IL3) 96 well pIC50 ([1]; minus IL3, 96 well)	BAF3-FLT3 (MIN IL3) 384 well pIC50 ([1]; minus IL3, 384 well)	BAF3-FGFR 3 (MIN IL3) 96 well pIC50 [3]	BAF3-FLT3 (MIN IL3) 96 well pIC50 ([1]; minus IL3)
COCC(O)CN(c1cc(OC)cc(OC)c1)c1ccc2ncc(-c3cccnc3)nc2c1 (single isomer, unassigned) [Compound 46]	154 °C	<5	> 10 µM	6.65					
COCC(O)CN(c1cc(OC)cc(OC)c1)c1ccc2ncc(-c3cccnc3)nc2c1 (single isomer, unassigned) [Compound 47]	153 °C	<5		6.3	<5				
COc1cc(OC)cc(N(CC#Cc2ncccn2)c2ccc3ncc(-c4cccnc4)nc3c2)c1 [Compound 2]	184 °C	<5	7.41 µM	7.13					
COc1cc(OC)cc(N(CCO)c2ccc3ncc(-c4ccc(N5CCOCC5)nc4)nc3c2)c1 [Compound 19]	193 °C	<5	> 10 µM	6.17					
COc1cc(OC)cc(N(CCCNCC(F)(F)F)c2ccc3ncc(-c4cnc(OC)nc4)nc3c2)c1 [Compound 26]	96 °C		> 10 µM	<5					
COc1cc(OC)cc(N(CCN)c2ccc3ncc(-c4ccn(C)c4)nc3c2)c1 [Compound 79]	106 °C		> 10 µM	~6.64					
COc1cc(OC)cc(N(CC2CC2)c2ccc3ncc(-c4ccc5[nH]ccc5c4)nc3c2)c1 [Compound 86]	181 °C			<5		<5	<5	5.4	
COc1cc(OC)cc(N(CC2CC2)c2ccc3ncc(-c4ccc5c(c4)OCO5)nc3c2)c1 [Compound 87]	144 °C			<5.4			<5.4		
COc1cc(OC)cc(N(CC2CC2)c2ccc3ncc(-c4cnc5[nH]ccc5c4)nc3c2)c1 [Compound 88]	234 °C			<5		<5	<5	<5	
COc1cc(OC)cc(N(CC2CC2)c2ccc3ncc(-c4cccc(N5CCOCC5)c4)nc3c2)c1 [Compound 92]	155 °C	<5		<5				<5	<5
COc1cc(OC)cc(N(CC2CC2)c2ccc3ncc(-n4cccn4)nc3c2)c1 [Compound 95]	160 °C	<5		<5				<5	<5
COc1cc(OC)cc(N(CCCO)c2ccc3ncc(-c4cnc(N5CCN(C)CC5)c(C)c4)nc3c2)c1 [Compound 135]	179 °C	5.43		6.3					
COc1cc(OC)cc(N(CCCO)c2ccc3ncc(-c4ccnc(Cl)c4)nc3c2)c1 [Compound 136]	175 °C		> 10 µM	5.71					
COc1cc(OC)cc(N(CCCNC(C)C)c2ccc3ncc(-c4ccnc(NC(=O)OC(C)(C)C)c4)nc3c2)c1 [Compound 137]	172 °C	5.91		~5.83					
COc1cc(OC)cc(N(CCCO)c2ccc3ncc(-c4ccnc(F)c4)nc3c2)c1 [Compound 142]	155 °C		> 10 µM	5.85					
COc1cc(OC)cc(N(CCNC(C)C)c2ccc3ncc(-c4ccnn4C4CCCCO4)nc3c2)c1 (stereo not drawn) [Compound 188]	122 °C		> 10 µM	6.17					

— patent publication US10052320B2, “Substituted quinoxalines as FGFR kinase inhibitors” (ASTEX THERAPEUTICS LIMITED, priority 2011, dated 2018)
